Earlier results on one substance are cited in patent publication US11464768B2, “Pimavanserin alone or in combination for use in the treatment of Alzheimer's disease psychosis” (ACADIA Pharmaceuticals Inc., priority 2016, dated 2022).

The conditions of the series: tartrate salt; cited from earlier work.

As for “urea, N-[(4-fluorophenyl)methyl]-N-(1-methyl-4-piperidinyl)-N′-[[4-(2-methylpropoxy)phenyl]methyl]-,(2R,3R)-2,3-dihydroxybutanedioate (2:1) [Pimavanserin tartrate]”, the solubility in water entry was “freely soluble in water”.
